Results on 14 compounds are retold here after patent publication US8785653B2, “(3-aryl-1H-1,2,4-triazol-5-yl)-linked heterocycle derivatives” (H. Lundbeck A/S, priority 2009, dated 2014).

SMILES strings stand for the structures.

By IC50 is commonly meant the concentration that gives 50% inhibition. What is called melting point is the temperature, or range, at which the solid turns liquid.

For series [1], the system named is rats. Conditions: cited from earlier work.
The subject of series [2] is rats. Conditions: cited from earlier work. This is another data set of the same source.
Series [3] relates to rats. Conditions: cited from earlier work. The source holds these as a separate data set.
Series [4] has as its target T1, PDE10A enzyme (Homo sapiens, UniProt Q9Y233).
T1 construct: made in house; host or cells: E. coli BL21(DE3)
As to the kind of experiment: PDE10A inhibition assay. Conditions: 3H-labelled cAMP substrate 5 nM, SPA beads, one hr at room temperature. Type of series: biochemical. The protocol:
Active PDE10A enzyme is prepared in a number of ways for use in PDE assays (Loughney, K. et al. Gene 1999, 234, 109-117; Fujishige, K. et al. Eur J Biochem. 1999, 266, 1118-1127 and Soderling, S. et al. Proc. Natl. Acad. Sci. 1999, 96, 7071-7076). PDE10A can be expressed as full-length proteins or as truncated proteins, as long as they express the catalytic domain. PDE10A can be prepared in different cell types, for example insect cells or E. coli. An example of a method to obtain catalytically active PDE10A is as follows: The catalytic domain of human PDE10A (amino acids 440-779 from the sequence with accession number NP 006652) is amplified from total human brain total RNA by standard RT-PCR and is cloned into the BamH1 and Xho1 sites of the pET28a vector (Novagen). Expression in coil is performed according to standard protocols. Briefly, the expression plasmids are transformed into the BL21(DE3) E. coli strain, and 50 mL cultures inoculated with the cells allowed to grow to an OD600 of 0.4-0.6 before protein expression is induced with 0.5mM IPTG. Following induction, the cells are incubated overnight at room temperature, after which the cells are collected by centrifugation. Cells expressing PDE10A are resuspended in 12 mL (50 mM TRIS-HCl-pH8.0, 1 mM MgCl2 and protease inhibitors). The cells are lysed by sonication, and after all cells are lysed, TritonX100 is added according to Novagen protocols.
A PDE10A assay may for example, be performed as follows: The assay is performed in 60 uL samples containing a fixed amount of the relevant PDE enzyme (sufficient to convert 20-25% of the cyclic nucleotide substrate), a buffer (50 mM HEPES7.6; 10 mM MgCl2; 0.02% Tween20), 0.1 mg/mI BSA, 225 pCi of ^3H-labelled cyclic nucleotide substrate, tritium labeled cAMP to a final concentration of 5 nM and varying amounts of inhibitors. Reactions are initiated by addition of the cyclic nucleotide substrate, and reactions are allowed to proceed for one hr at room temperature before being terminated through mixing with 15 uL 8 mg/mL yttrium silicate SPA beads (Amersham). The beads are allowed to settle for one hr in the dark before the plates are counted in a Wallac 1450 Microbeta counter. The measured signal can be converted to activity relative to an uninhibited control (100%) and IC50 values can be calculated using the XIfit extension to EXCEL.

T1 sequence (Q9Y233 716-1055): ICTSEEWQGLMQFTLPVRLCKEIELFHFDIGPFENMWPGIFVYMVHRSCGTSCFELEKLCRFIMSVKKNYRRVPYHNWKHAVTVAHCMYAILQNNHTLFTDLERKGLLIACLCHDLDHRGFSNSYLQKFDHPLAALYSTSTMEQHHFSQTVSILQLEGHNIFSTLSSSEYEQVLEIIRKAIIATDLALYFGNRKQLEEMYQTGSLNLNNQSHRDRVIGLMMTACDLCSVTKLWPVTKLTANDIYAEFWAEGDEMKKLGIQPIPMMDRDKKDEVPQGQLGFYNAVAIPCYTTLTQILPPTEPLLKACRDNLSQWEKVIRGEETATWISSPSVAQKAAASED

Take `COc1ccc(Cc2nccc3cc(OC)c(OC)cc23)cc1OC` [Papaverine, papaverine]: in series [1], the “hyperactivity induced by PCP” value was “reduced hyperactivity”. The “catalepsy on its own” value in series [2] (papaverine alone) is on record as “did not cause catalepsy”. Also, in series [2] (together with haloperidol), the “cataleptic effect of the D2 receptor antagonist haloperidol” value is “potentiated”. Further, the “reduction of amphetamine induced hyperactivity” value in series [3] was “insignificant”. `Cc1cccc2nc(CSc3nc(-c4ccccc4)n[nH]3)nn12` [5-Methyl-2-(5-phenyl-2H-[1,2,4]triazol-3-ylsulfanylmethyl)-[1,2,4]triazolo[1,5-a]pyridine]: 200 nM corresponded to half-maximal inhibition in series [4] (IC50). Same read-out and setting: as for `Cc1ncc(C)n2nc(CCc3nc(-c4ccccc4)nn3CCO)nc12` [2-{5-[2-(5,8-Dimethyl-[1,2,4]triazolo[1,5-a]pyrazin-2-yl)-ethyl]-3-phenyl-[1,2,4]triazol-1-yl}-ethanol], the figure is 69 nM; as for `Cc1ncc(C)n2nc(CCc3nc(-c4cscn4)nn3C)nc12` [5,8-Dimethyl-2-[2-(2-methyl-5-thiazol-4-yl-2H-[1,2,4]triazol-3-yl)-ethyl-]-[1,2,4]triazolo[1,5-a]pyrazine], 25 nM; as for `Cc1ccc(C)n2nc(CCc3nc(-c4ccccc4)nn3C)nc12` [5,8-Dimethyl-2-[2-(2-methyl-5-phenyl-2H-[1,2,4]triazol-3-yl)-ethyl]-[1,2,4]triazolo[1,5-a]pyridine], 6.7 nM.

In series [4], `COc1ccc(C)n2nc(CCc3nc(-c4ccccc4)nn3CCC#N)nc12` [3-{5-[2-(8-Methoxy-5-methyl-[1,2,4]triazolo[1,5-a]pyridin-2-yl)-ethyl]-3-phenyl-[1,2,4]triazol-1-yl}-propionitrile] displayed an IC50 of 45 nM. `Cc1ncc(C)n2nc(CCc3nc(-c4ccco4)nn3C)nc12` [2-[2-(5-Furan-2-yl-2-methyl-2H-[1,2,4]triazol-3-yl)-ethyl]-5,8-dimethyl-[1,2,4]triazolo[1,5-a]pyrazine] registered a 50% inhibitory concentration (IC50) in series [4] of 4.6 nM. `Cc1ncc(C)n2nc(CCc3nc(-c4ncccn4)nn3C)nc12` [5,8-Dimethyl-2-[2-(2-methyl-5-pyrimidin-2-yl-2H-[1,2,4]triazol-3-yl)-ethyl]-[1,2,4]triazolo[1,5-a]pyrazine]: in series [4], the IC50 amounted to 53 nM. Same read-out and setting: the figure for `Cc1csc(-c2nc(CCc3nc4c(C)ncc(C)n4n3)n(C)n2)n1` [5,8-Dimethyl-2-{2-[2-methyl-5-(4-methyl-thiazol-2-yl)-2H-[1,2,4]triazol-3-yl]-ethyl}-[1,2,4]triazolo[1,5-a]pyrazine] is 76 nM; for `CCCn1nc(-c2ccccc2)nc1CCc1nc2c(OC)ccc(C)n2n1` [8-Methoxy-5-methyl-2-[2-(5-phenyl-2-propyl-2H-[1,2,4]triazol-3-yl)-ethyl]-[1,2,4]triazolo[1,5-a]pyridine] it is 37 nM. Same read-out and setting: the figure for `CCOC(=O)Cn1nc(-c2ccccc2)nc1CCc1nc2c(OC)ccc(C)n2n1` [{5-[2-(8-Methoxy-5-methyl-[1,2,4]triazolo[1,5-a]pyridin-2-yl)-ethyl]-3-phenyl-[1,2,4]triazol-1-yl}-acetic acid ethyl ester] is 81 nM; for `COc1cccn2nc(CCc3nc(-c4ccccc4)nn3C)nc12` [8-Methoxy-2-[2-(2-methyl-5-phenyl-2H-[1,2,4]triazol-3-yl)-ethyl]-[1,2,4]triazolo[1,5-a]pyridine] it is 560 nM.

Turning to `COc1ccc(C)n2nc(CCc3nc(-c4ccccc4)nn3C)nc12` [8-Methoxy-5-methyl-2-[2-(2-methyl-5-phenyl-2H-[1,2,4]triazol-3-yl)-ethyl]-[1,2,4]triazolo[1,5-a]pyridine], in series [4], the IC50 turned out to be 25 nM. Consider `CCCn1nc(-c2ccccc2)nc1CCc1nc2c(CC)ccc(C)n2n1` [8-Ethyl-5-methyl-2-[2-(5-phenyl-2-propyl-2H-[1,2,4]triazol-3-yl)-ethyl]-[1,2,4]triazolo[1,5-a]pyridine], for which the melting point is 141 to 143 °C. Half-maximal inhibition in series [4] (IC50) was put at 10 nM.
